In ChEMBL document CHEMBL5715954, “Silencing c-Myc translation as a therapeutic strategy through targeting PI3Kδ and CK1ε in hematological malignancies” (Blood, 2017):

Experiments:
Set-up in all cases: scale not given: the % may be the effect or the level left
[1] = biological target: T1, Ephrin type-B receptor 3 (Homo sapiens) (UniProt P54753); test: Inhibition of human EPHB3 assessed as enzyme activity at 1 uM using poly[Glu:Tyr] (4:1) as substrate preincubated for 20 mins followed by [gamma-33P]-ATP addition and measured after 120 mins by radiometric Hot-SpotSM Kinase assay relative to control
T1 sequence (whole entry): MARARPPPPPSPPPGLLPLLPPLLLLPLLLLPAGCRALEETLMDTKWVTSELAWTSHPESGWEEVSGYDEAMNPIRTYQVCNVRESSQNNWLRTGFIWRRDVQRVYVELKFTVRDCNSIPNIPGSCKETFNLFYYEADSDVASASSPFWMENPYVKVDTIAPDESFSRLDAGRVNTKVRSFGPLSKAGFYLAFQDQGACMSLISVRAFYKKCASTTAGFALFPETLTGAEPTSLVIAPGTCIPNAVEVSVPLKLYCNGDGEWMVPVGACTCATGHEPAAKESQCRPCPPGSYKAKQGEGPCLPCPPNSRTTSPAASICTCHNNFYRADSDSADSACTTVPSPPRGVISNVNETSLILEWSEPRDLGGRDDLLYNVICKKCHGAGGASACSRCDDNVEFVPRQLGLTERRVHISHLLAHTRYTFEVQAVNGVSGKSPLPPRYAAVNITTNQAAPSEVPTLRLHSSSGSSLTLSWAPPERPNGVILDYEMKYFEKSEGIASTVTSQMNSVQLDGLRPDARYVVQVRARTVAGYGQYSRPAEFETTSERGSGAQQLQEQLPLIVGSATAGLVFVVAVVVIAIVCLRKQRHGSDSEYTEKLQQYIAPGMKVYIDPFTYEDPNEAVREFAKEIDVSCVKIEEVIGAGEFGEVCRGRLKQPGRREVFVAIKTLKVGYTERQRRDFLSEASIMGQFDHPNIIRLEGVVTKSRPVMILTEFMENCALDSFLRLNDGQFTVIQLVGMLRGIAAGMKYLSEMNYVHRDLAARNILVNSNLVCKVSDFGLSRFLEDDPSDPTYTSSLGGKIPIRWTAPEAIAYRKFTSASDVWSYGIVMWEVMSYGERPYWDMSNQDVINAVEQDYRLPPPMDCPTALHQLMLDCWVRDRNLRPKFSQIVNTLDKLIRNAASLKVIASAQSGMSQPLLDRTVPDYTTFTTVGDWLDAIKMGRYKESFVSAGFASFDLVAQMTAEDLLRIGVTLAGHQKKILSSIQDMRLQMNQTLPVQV

[2] = biological target: Protein kinase C beta type (Homo sapiens) (UniProt P05771); test: Inhibition of human PKCb1 assessed as enzyme activity at 1 uM using ERMRPRKRQGSVRRRV as substrate preincubated for 20 mins followed by [gamma-33P]-ATP addition and measured after 120 mins by radiometric Hot-SpotSM Kinase assay relative to control
Chain of Protein kinase C beta type (Homo sapiens) (P05771 2-671 limits assumed): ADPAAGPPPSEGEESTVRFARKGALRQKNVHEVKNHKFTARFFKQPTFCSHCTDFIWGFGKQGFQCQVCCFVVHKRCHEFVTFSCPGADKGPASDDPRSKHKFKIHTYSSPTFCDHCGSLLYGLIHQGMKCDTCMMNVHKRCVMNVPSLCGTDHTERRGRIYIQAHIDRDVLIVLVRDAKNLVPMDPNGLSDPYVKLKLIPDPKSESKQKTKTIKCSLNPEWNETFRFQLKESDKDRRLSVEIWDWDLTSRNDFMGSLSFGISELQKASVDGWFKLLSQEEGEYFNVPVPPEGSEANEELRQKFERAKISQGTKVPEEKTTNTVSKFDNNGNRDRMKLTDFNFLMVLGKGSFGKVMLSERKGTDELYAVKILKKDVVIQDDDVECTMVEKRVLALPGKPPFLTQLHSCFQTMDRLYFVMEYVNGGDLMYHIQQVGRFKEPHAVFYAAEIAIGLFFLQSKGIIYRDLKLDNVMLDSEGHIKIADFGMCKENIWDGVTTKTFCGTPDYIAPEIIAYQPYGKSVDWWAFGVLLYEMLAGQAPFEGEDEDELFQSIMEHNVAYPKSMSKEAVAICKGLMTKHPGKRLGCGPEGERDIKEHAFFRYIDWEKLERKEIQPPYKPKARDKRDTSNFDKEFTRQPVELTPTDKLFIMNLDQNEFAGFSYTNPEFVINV

[3] = biological target: T2, Ephrin type-B receptor 4 (Homo sapiens) (UniProt P54760); test: Inhibition of human EPHB4 assessed as enzyme activity at 1 uM using poly[Glu:Tyr] (4:1) as substrate preincubated for 20 mins followed by [gamma-33P]-ATP addition and measured after 120 mins by radiometric Hot-SpotSM Kinase assay relative to control
T2 sequence (whole entry): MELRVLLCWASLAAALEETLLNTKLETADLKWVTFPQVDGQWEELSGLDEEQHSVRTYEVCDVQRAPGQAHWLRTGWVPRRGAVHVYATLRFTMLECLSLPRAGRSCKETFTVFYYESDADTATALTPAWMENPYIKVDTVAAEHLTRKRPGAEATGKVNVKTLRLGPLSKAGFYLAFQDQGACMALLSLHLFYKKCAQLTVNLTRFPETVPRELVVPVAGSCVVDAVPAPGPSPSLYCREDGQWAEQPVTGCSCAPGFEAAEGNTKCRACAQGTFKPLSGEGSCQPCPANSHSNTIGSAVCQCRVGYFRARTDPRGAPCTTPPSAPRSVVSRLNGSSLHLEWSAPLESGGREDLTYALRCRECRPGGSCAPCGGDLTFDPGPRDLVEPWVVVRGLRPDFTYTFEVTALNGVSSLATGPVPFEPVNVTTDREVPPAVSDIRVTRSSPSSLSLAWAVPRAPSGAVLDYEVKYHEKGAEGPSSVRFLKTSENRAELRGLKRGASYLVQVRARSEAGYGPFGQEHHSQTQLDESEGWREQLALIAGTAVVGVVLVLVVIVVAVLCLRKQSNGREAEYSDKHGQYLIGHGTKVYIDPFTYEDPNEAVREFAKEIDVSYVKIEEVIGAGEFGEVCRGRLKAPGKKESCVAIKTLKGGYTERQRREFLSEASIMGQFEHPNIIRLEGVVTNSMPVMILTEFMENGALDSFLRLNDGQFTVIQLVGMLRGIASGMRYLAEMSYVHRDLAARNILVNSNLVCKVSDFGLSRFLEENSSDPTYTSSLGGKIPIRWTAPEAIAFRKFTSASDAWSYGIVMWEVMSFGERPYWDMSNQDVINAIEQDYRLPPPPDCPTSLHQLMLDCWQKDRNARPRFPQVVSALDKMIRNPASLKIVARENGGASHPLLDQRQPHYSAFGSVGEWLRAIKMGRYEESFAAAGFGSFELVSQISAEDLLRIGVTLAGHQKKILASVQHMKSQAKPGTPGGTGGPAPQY

[4] = biological target: Tyrosine-protein kinase Lyn (Homo sapiens) (UniProt P07948); test: Inhibition of human LYN B assessed as enzyme activity at 1 uM using poly[Glu:Tyr] (4:1) as substrate preincubated for 20 mins followed by [gamma-33P]-ATP addition and measured after 120 mins by radiometric Hot-SpotSM Kinase assay relative to control
Chain of Tyrosine-protein kinase Lyn (Homo sapiens) (P07948 2-512 limits assumed): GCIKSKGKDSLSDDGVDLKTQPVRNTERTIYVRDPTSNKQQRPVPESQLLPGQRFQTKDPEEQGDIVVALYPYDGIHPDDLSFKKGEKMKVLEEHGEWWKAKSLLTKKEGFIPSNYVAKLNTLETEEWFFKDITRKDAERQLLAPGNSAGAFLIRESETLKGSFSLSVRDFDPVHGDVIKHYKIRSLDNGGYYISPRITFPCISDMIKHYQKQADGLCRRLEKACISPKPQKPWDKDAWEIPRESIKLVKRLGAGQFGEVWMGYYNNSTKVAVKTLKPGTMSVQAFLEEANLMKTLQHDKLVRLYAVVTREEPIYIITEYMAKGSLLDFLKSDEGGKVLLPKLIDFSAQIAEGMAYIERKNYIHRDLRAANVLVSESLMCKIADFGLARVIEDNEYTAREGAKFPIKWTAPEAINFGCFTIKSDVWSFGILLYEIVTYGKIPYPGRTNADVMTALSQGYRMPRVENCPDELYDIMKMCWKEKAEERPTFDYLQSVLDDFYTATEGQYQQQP

[5] = biological target: Mitogen-activated protein kinase kinase kinase 21 (Homo sapiens) (UniProt Q5TCX8); test: Inhibition of human MLK4 assessed as enzyme activity at 1 uM using MEK1 (K97R) as substrate preincubated for 20 mins followed by [gamma-33P]-ATP addition and measured after 120 mins by radiometric Hot-SpotSM Kinase assay relative to control
Chain of Mitogen-activated protein kinase kinase kinase 21 (Homo sapiens) (Q5TCX8 whole entry): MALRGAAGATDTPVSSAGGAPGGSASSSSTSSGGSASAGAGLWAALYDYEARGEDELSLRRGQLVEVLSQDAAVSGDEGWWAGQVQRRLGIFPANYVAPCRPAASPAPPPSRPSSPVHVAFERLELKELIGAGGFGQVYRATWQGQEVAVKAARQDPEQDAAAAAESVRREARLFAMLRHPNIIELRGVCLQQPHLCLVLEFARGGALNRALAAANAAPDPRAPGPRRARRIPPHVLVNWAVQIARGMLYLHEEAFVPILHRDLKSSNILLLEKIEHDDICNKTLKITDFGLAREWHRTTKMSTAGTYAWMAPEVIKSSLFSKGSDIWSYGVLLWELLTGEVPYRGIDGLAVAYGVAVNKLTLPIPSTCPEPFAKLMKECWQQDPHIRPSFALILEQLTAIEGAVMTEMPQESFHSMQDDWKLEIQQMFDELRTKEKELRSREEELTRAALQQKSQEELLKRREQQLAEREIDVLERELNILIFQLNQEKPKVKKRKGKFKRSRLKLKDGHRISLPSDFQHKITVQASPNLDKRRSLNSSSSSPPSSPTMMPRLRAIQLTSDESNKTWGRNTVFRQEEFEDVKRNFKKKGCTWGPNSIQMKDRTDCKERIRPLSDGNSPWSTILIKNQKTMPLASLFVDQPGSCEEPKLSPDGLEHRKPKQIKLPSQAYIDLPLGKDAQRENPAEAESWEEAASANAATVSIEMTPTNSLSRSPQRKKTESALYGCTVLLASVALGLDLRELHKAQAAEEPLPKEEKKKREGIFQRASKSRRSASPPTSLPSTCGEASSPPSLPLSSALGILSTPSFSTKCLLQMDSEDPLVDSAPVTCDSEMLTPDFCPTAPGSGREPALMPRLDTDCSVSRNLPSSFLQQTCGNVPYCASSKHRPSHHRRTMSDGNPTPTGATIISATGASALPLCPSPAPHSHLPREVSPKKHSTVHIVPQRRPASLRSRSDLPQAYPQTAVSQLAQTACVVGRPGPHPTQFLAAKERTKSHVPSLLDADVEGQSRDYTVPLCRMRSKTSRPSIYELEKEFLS

[6] = biological target: Proto-oncogene tyrosine-protein kinase receptor Ret (Homo sapiens) (UniProt P07949); test: Inhibition of human RET assessed as enzyme activity at 1 uM using RRRRRRRRRRRVYSTDYYRLFNPS as substrate preincubated for 20 mins followed by [gamma-33P]-ATP addition and measured after 120 mins by radiometric Hot-SpotSM Kinase assay relative to control
Chain of Proto-oncogene tyrosine-protein kinase receptor Ret (Homo sapiens) (P07949 whole entry): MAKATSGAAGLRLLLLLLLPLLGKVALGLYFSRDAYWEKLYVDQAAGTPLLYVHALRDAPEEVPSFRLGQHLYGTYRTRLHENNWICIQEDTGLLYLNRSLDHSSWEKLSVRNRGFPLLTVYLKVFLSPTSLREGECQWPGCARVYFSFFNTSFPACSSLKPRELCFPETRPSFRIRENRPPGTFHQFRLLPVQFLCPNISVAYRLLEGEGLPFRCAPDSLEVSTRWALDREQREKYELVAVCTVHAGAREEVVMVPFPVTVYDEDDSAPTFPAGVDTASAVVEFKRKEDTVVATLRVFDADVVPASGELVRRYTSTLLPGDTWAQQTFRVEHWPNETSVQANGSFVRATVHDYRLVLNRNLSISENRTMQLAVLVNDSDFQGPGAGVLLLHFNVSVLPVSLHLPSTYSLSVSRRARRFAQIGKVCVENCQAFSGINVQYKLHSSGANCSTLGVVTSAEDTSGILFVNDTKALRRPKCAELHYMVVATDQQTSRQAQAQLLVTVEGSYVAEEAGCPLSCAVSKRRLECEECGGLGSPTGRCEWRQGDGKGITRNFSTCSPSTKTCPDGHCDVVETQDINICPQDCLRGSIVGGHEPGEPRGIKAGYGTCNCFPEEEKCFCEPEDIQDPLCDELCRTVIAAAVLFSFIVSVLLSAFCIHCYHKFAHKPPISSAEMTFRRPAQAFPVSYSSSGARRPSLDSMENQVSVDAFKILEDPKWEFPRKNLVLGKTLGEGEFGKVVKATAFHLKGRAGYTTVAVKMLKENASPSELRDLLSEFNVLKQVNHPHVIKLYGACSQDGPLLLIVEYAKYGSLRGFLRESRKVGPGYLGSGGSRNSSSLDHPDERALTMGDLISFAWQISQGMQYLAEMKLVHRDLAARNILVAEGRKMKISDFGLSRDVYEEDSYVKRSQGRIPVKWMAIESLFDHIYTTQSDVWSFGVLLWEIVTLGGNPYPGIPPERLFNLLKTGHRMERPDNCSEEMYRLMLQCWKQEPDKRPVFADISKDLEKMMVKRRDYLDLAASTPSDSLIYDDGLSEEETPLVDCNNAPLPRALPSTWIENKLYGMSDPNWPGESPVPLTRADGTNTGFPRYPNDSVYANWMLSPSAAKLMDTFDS

[7] = biological target: Dual specificity mitogen-activated protein kinase kinase 2 (Homo sapiens) (UniProt P36507); test: Inhibition of human MEK2 assessed as enzyme activity at 1 uM using ERK2 (K52R) as substrate preincubated for 20 mins followed by [gamma-33P]-ATP addition and measured after 120 mins by radiometric Hot-SpotSM Kinase assay relative to control
Chain of Dual specificity mitogen-activated protein kinase kinase 2 (Homo sapiens) (P36507 whole entry): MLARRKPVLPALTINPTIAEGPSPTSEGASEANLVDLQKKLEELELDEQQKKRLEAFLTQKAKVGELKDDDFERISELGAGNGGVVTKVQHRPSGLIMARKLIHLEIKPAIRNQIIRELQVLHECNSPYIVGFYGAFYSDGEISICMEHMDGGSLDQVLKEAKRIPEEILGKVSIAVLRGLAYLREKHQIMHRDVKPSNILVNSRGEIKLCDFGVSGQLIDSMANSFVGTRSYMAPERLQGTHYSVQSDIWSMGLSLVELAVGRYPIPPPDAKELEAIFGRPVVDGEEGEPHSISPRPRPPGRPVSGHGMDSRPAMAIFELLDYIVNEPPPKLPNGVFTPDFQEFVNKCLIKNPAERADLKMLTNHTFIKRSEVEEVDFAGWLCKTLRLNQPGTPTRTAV

[8] = biological target: TGF-beta receptor type-2 (Homo sapiens) (UniProt P37173); test: Inhibition of human TGFBR2 assessed as enzyme activity at 1 uM using myelin basic protein as substrate preincubated for 20 mins followed by [gamma-33P]-ATP addition and measured after 120 mins by radiometric Hot-SpotSM Kinase assay relative to control
Chain of TGF-beta receptor type-2 (Homo sapiens) (P37173 whole entry): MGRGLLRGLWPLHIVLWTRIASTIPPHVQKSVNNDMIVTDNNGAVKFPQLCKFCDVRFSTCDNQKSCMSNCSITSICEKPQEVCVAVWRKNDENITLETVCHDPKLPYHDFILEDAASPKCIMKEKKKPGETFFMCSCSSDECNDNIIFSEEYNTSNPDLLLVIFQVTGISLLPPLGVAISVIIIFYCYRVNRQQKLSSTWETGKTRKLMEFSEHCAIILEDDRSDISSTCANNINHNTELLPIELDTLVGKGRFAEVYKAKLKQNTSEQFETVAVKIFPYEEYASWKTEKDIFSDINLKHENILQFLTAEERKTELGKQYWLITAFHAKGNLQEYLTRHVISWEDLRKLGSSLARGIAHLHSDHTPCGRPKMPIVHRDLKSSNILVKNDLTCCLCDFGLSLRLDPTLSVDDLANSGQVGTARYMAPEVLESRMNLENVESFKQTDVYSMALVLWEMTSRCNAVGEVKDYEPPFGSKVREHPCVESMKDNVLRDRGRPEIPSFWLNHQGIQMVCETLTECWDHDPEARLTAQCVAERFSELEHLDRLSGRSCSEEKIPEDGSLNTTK

Row | Structure (SMILES) | Activity [1] [%] | Activity [2] [%] | Activity [3] [%] | Activity [4] [%] | Activity [5] [%] | Activity [6] [%] | Activity [7] [%] | Activity [8] [%]
1 | CC[C@H](Nc1ncnc2[nH]cnc12)c1nc2cccc(F)c2c(=O)n1-c1ccccc1 | 98.3 | 98.7 | 92.2 | 97.8 | 95.7 | 98.6 | 91.5 | 110
2 | C[C@H](Nc1ncnc2nc[nH]c12)c1cc2cccc(Cl)c2c(=O)n1-c1ccccc1 | 89.7 | 99.4 | 91.5 | 102 | 93.5 | 97.7 | 90 | 114
3 | CC(C)Oc1ccc(-c2nn([C@@H](C)c3oc4ccc(F)cc4c(=O)c3-c3cccc(F)c3)c3ncnc(N)c23)cc1F [UMBRALISIB] | 97.4 | 99 | 89.7 | 104 | 94.7 | 99.9 | 90.4 | 97.4
